From patent publication US9670255B2 (priority 2013, dated 2017)
pKd: −log10 of the molar value.

Key:
LISA314 WT = assay: Affinity analysis by SPR (Biacore assay), LISA314 WT; assay type: binding, Streptomyces avidinii; conditions: SPR Biacore T100, protein immobilized on Sensor Chip NTA, equilibrium value analysis, read-out: Dissociation constant: KD
Method: (§1) For affinity analysis, Biacore T100 was used. Specifically, the protein that had been fractionated by gel filtration chromatography was immobilized using Sensor Chip NTA. As a running buffer, 0.5% Tween20, HBS-P+ was used. Immobilization of the protein on nickel NTA and ligand capture were carried out according to the template program included therewith.
(§2) The amount of a ligand immobilized on a sensor chip was adjusted within the range of 1608 RU to 8042 RU, so as to suppress mass transport limitation. As analytes, biocytin and Compound 29 (the structure thereof is shown below) synthesized in Example 1 were used. It is to be noted that biocytin is a main existence form of biotin.
(§3) With regard to the concentrations of the analytes, in the case of biocytin, eight 2-fold dilution series were prepared from 1 μM, and in the case of Compound 29, twelve 2-fold dilution series were prepared from 16 μM. The measurement was carried out at a flow rate of 30 μl/min, for a contact time of 120 seconds, and for a dissociation time of 600 seconds. For the analysis of the data, sensorgrams for all concentrations were incorporated into analysis software, the equilibrium value analysis was then carried out, and the dissociation constant KD was then calculated.

LISA314 V21 = LISA314 V21 (Streptomyces avidinii, UniProt P22629, E125D/E140N/N47D/R108K/R127K/S51D/Y107S/Y46S); assay: Affinity analysis by SPR (Biacore assay), LISA314 V21; assay type: binding; conditions: SPR Biacore T100, protein immobilized on Sensor Chip NTA, equilibrium value analysis, read-out: Dissociation constant: KD
Method: as §1, §2, §3

Sequence of LISA314 V21 (P22629 25-183 Y46S/N47D/S51D/Y107S/R108K/E125D/R127K/E140N limits assumed): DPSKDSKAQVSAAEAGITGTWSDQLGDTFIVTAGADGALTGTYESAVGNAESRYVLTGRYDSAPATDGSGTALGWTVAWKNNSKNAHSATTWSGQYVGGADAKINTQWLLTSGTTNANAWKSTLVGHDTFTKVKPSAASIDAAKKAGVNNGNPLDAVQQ

## N[C@@H](CCCCNC(=O)CCCC[C@@H]1SC[C@@H]2NC(=O)N[C@@H]21)C(=O)O [Biocytin, biocytin]
LISA314 WT
  pKd: 8.62
LISA314 V21
  pKd: 6.46
